From ChEMBL document CHEMBL4680168, “The development of a novel transforming growth factor-β (TGF-β) inhibitor that disrupts ligand-receptor interactions” (Eur J Med Chem, 2020)
Values belong to the compound of their own block, whether it stands above or below them. The source made the active and inactive calls. No cut-off for these calls is given here.

Columns and labels:
[1] = Inhibition of TGFbeta signalling pathway in MLEC preincubated for 30 mins followed by TGF-beta1 addition and measured after 18 hrs by Steady-Glo luciferase assay; design: species or system Neovison vison
[2] = Cytotoxicity against MLEC assessed as reduction in cell viability at 50 uM by MTT assay; settings: neovison vison
A549 [3] = experiment: Inhibition of TGFBR1/TGFBR2 protein-protein interaction in human A549 cells assessed as inhibition of TGF-beta1-induced Akt phosphorylation at 40 uM incubated for 6 hrs by Western blot analysis; assay type: cell-based; settings: filed as antagonist
A549 [4] = experiment: Inhibition of TGFBR1/TGFBR2 protein-protein interaction in human A549 cells assessed as reduction in TGF-beta1-induced fibronectin expression preincubated for 2 hrs followed by TGF-beta1 addition and measured after 4 hrs by Western blot analysis; assay type: cell-based; settings: filed as antagonist, dose 20-80 µM, time 6.0 hrs
A549 [5] = experiment: Inhibition of TGFBR1/TGFBR2 protein-protein interaction in human A549 cells assessed as reduction in TGF-beta1-induced cell migration expression preincubated for 2 hrs followed by TGF-beta1 addition and measured after 48 hrs by scratch-wound healing assay; assay type: cell-based; settings: filed as antagonist, dose 20-80 µM, time 50.0 hrs
A549 [6] = experiment: Cytotoxicity against human A549 cells assessed as reduction in cell viability at 20 to 80 uM up to 48 hrs by MTT assay; assay type: cell-based; settings: a549, 48 h, dose 20-80 µM
A549 [7] = experiment: Inhibition of TGFBR1/TGFBR2 protein-protein interaction in human A549 cells assessed as inhibition of TGF-beta1-induced Erk1/Erk2 phosphorylation at 40 uM incubated for 6 hrs by Western blot analysis; assay type: cell-based; settings: filed as antagonist
A549 [8] = experiment: Inhibition of TGFBR1/TGFBR2 protein-protein interaction in human A549 cells assessed as inhibition of TGF-beta1-induced Akt phosphorylation at 40 uM preincubated for 2 hrs followed by TGF-beta1-stimulation and measured after 4 hrs by Western blot analysis; assay type: cell-based; settings: filed as antagonist, time 6.0 hrs
A549 [9] = experiment: Inhibition of TGFBR1/TGFBR2 protein-protein interaction in human A549 cells assessed as inhibition of TGF-beta1-induced Erk1/Erk2 phosphorylation at 40 uM preincubated for 2 hrs followed by TGF-beta1-stimulation and measured after 4 hrs by Western blot analysis; assay type: cell-based; settings: filed as antagonist, time 6.0 hrs
A549 [10] = experiment: Inhibition of TGFBR1/TGFBR2 protein-protein interaction in human A549 cells assessed as reduction in TGF-beta1-induced alpha-SMA expression preincubated for 2 hrs followed by TGF-beta1 addition and measured after 4 hrs by Western blot analysis; assay type: cell-based; settings: filed as antagonist, dose 20-80 µM, time 6.0 hrs
A549 [11] = experiment: Inhibition of TGFBR1/TGFBR2 protein-protein interaction in human A549 cells assessed as inhibition of TGF-beta1-induced Smad2/Smad3 phosphorylation at 40 uM preincubated for 2 hrs followed by TGF-beta1-stimulation and measured after 4 hrs by Western blot analysis; assay type: cell-based; settings: filed as antagonist, time 6.0 hrs
A549 [12] = experiment: Inhibition of TGFBR1/TGFBR2 protein-protein interaction in human A549 cells assessed as reduction in TGF-beta1-induced cell migration expression preincubated for 2 hrs followed by TGF-beta1 addition and measured after 24 hrs by crystal violet staining based transwell assay; settings: filed as antagonist, dose 20-80 µM, time 26.0 hrs
A549 [13] = experiment: Inhibition of TGFBR1/TGFBR2 protein-protein interaction in human A549 cells assessed as reduction in TGF-beta1-induced MMP-2 expression preincubated for 2 hrs followed by TGF-beta1 addition and measured after 4 hrs by Western blot analysis; assay type: cell-based; settings: filed as antagonist, dose 20-80 µM, time 6.0 hrs
[14] = Inhibition of TGFBR1/TGFBR2 protein-protein interaction in MLEC cells assessed as inhibition of TGF-beta1-induced dimer formation preincubated for 30 mins followed by TGF-beta1-stimulation and measured after overnight by pathhunter assay; assay type: cell-based, Neovison vison; settings: Neogale vison
A549 [15] = experiment: Inhibition of TGFBR1/TGFBR2 protein-protein interaction in human A549 cells assessed as reduction in TGF-beta1-induced cell migration expression at 40 to 80 uM preincubated for 2 hrs followed by TGF-beta1 addition and measured after 24 hrs by scratch-wound healing assay; assay type: cell-based; settings: filed as antagonist, dose 40-80 µM, time 26.0 hrs
A549 [16] = experiment: Inhibition of TGFBR1/TGFBR2 protein-protein interaction in human A549 cells assessed as inhibition of TGF-beta1-induced Smad2/Smad3 phosphorylation at 40 uM incubated for 6 hrs by Western blot analysis; assay type: cell-based

IC50 [1]: Not Active
SMILES: COC(=O)c1ccc(NCc2c(C)c(CNc3ccc(C(=O)OC)cc3)c(C)c(CNc3ccc(C(=O)OC)cc3)c2C)cc1
Activity [2]: Non-Toxic

IC50 ([1]; read-out: IC50): > 50 µM
SMILES: CC(=O)c1ccc(NCc2c(C)c(CNc3ccc(C(C)=O)cc3)c(C)c(CNc3ccc(C(C)=O)cc3)c2C)cc1
Activity [2]: Non-Toxic

IC50 [1]: Not Active
SMILES: Cc1c(CNc2ccc(C(N)=O)cc2)c(C)c(CNc2ccc(C(N)=O)cc2)c(C)c1CNc1ccc(C(N)=O)cc1
Activity [2]: Non-Toxic

IC50 ([1]; read-out: IC50): 38.1 µM
SMILES: COC(=O)c1cccc(NCc2c(C)c(CNc3cccc(C(=O)OC)c3)c(C)c(CNc3cccc(C(=O)OC)c3)c2C)c1
Activity [2]: Non-Toxic

SMILES: Cc1c(CNCc2ccccc2)c(C)c(CNCc2ccccc2)c(C)c1CNCc1ccccc1
Activity [2]: Toxic

SMILES: COC(=O)c1ccc(CNCc2c(C)c(CNCc3ccc(C(=O)OC)cc3)c(C)c(CNCc3ccc(C(=O)OC)cc3)c2C)cc1
Activity [2]: Toxic

IC50 ([1]; read-out: IC50): 31.9 µM
SMILES: Cc1c(CNc2cccc(C(N)=O)c2)c(C)c(CNc2cccc(C(N)=O)c2)c(C)c1CNc1cccc(C(N)=O)c1
Activity [2]: Non-Toxic

IC50 ([1]; read-out: IC50): 5.3 µM | IC50 [14]: 23.6 µM
SMILES: Cc1c(CNc2ccccc2)c(C)c(CNc2ccccc2)c(C)c1CNc1ccccc1
Activity (A549 [3]): Active | Activity (A549 [4]): Dose-dependent effect | Activity (A549 [5]): Dose-dependent effect | Activity (A549 [6]): Non-Toxic | Activity (A549 [7]): Active | Activity (A549 [8]): Active | Activity (A549 [9]): Active | Activity (A549 [10]): Dose-dependent effect | Activity (A549 [11]): Active | Activity (A549 [12]): Dose-dependent effect | Activity (A549 [13]): Dose-dependent effect | Activity (A549 [15]): Active | Activity [2]: Non-Toxic | Activity (A549 [16]): inactive

SMILES: COC(=O)c1cccc(CNCc2c(C)c(CNCc3cccc(C(=O)OC)c3)c(C)c(CNCc3cccc(C(=O)OC)c3)c2C)c1
Activity [2]: Toxic

IC50 [1]: Not Active
SMILES: CC(=O)c1cccc(NCc2c(C)c(CNc3cccc(C(C)=O)c3)c(C)c(CNc3cccc(C(C)=O)c3)c2C)c1
Activity [2]: Non-Toxic

IC50 ([1]; read-out: IC50): 18 µM
SMILES: c1ccc(CN2COc3c(c4c(c5c3CN(Cc3ccccc3)CO5)CN(Cc3ccccc3)CO4)C2)cc1
